Experimental data: US9095565B2, “Methods for treating blood disorders” (Phoenicia Biosciences, Inc., priority 2006, dated 2015)

Legend:
γ globin promoter = experiment: β/γ-globin promoter driven reporter gene assay; type: cell-based; settings: Table 2
γ-globin gene = experiment: Related study: relative in vitro γ-globin gene induction; type: cell-based
Method: (§1) In a related study, the relative luciferase reporter gene induction, γ-globin gene induction, and F cell production was tested for several of the candidate compounds. The relative in vitro γ-globin gene reporter stimulation for the tested compounds was as follows: compound P>M>W=R=Y. The relative in vitro γ-globin gene induction for the tested compounds was as follows: P>R=M>Y>W>. The relative in vitro F-cell production was as follows: W>Y>R>M>P. The relative potency for F-cell production was as follows: R>M>Y>P>W.

fetal globin mRNA = experiment: Fetal globin induction in phlebotomized anemic baboons; type: in vivo, baboon; settings: Baboon 5002, 5 mg/kg/dose
Method: Juvenile baboons were catheterized with venous and arterial catheters, and were phlebotomized a set amount of blood daily to maintain anemia with a hemoglobin level of 7.0-7.5 g/dl, from a baseline normal hemoglobin level of (12-13 g/dl). Normal saline was infused to replace the amount of blood withdrawn. This degree of phlebotomy exchanges the blood volume every 10-20 days.
Fetal globin mRNA was analyzed at baseline anemia before and following administration of test compounds. Globin chain protein synthesis confirmed the mRNA findings.
Following establishment of the stable level of anemia, a test compound was administered once/day, either intravenously or orally, and blood was withdrawn through the arterial catheter for analysis of globin mRNA or for analysis of the test compound in the plasma by HPLC-MS. Pharmacokinetic profiles were established from the plasma levels and oral bioavailability (comparing area under the curve between IV and oral plasma levels) was determined for the test compounds.
In anemic Baboon 5002, baseline fetal globin mRNA, assayed by RNAse protection, was 26% of non-alpha globin. With treatment with compound Y at 5 mg/kg/dose, fetal globin mRNA increased to 48% of non-alpha globin, an 85% increase over the baseline level. Treatment with compound AK at 50 mg/kg induced a 51% fetal globin mRNA increase, a 96% increase over the baseline level. […] The human equivalent dose is 20% of these doses, or 1 mg/kg, 10 mg/kg, or 8 mg/kg respectively. Thus, these 3 compounds are highly suitable for pharmaceutical compositions at doses that human patients can readily tolerate.

F-cell = experiment: Related study: in vitro F cell production; type: cell-based
Method: as §1

[1] = test system: Erythroid colonies (BFU-E); experiment: Experiment 2: erythroid colonies (BFU-E) cultured from patients with beta thalassemia; type: cell-based, human; settings: optimal panel of growth factors
Method: (§2) Erythroid burst-forming units (BFU-E) (erythroid progenitors) and colony-forming units granulocyte-macrophage (CFU-GM) (myeloid colonies) were cultured in semi-solid or in two-phase suspension media, with or without hematopoietic growth factors at high levels (e.g., erythropoietin at 3 U/ml) or reduced levels (BFU-E cell proliferation was evaluated by enumeration in colonies developing in the presence of reduced amounts of erythropoietin (0.5 U/ml) rather than 3 U (or 3000 mU)/ml, which is standard for these experimental systems), from cord blood or the peripheral blood of several types of humans. Experiments were carried out on samples derived from 1) β-thalassemia patients who expressed variable levels of fetal globin at baseline (and in untreated control cultures) and represent a variety of potential individual responses, 2) from normal umbilical cord blood samples, which express 40-50% fetal globin at baseline (and in untreated control cultures), 3) from CD34+ cells isolated from normal adult peripheral blood, which expressed low levels of fetal globin in untreated control cultures and at baseline; and 4) from peripheral blood of patients with sickle cell disease who were receiving treatment with hydroxyurea. These biological samples provide a range of potential difficulty in stimulating fetal globin expression in human patients.
Erythroid colonies were cultured from patients with beta thalassemia, either without any test compounds (Control), only an optimal panel of hematopoietic growth factors, or with one of the test compounds M, P, T, 2-methyl-1-benzofuran-4-carboxylic acid, V, W, X, Y, AK, AC, or AI. […] Colony numbers were increased above the control cultures (% BFU-E/Control) by anywhere from 25% to 230%. Each of the listed test compounds was tested in at least 5 different patients' blood and the differences were statistically significant.

γ-globin mRNA = γ-globin mRNA by RT-PCR in erythroid colonies cultured from cord blood; type: cell-based, human; settings: for Concentration required: increase in fetal globin mRNA, erythroid colonies from cord blood; for No. of Positive responses: positive cultures/cultures tested
Method: γ-globin mRNA was analyzed in control and treated erythroid colonies cultured from cord blood, by RT-PCR.

γ-globin gene reporter = experiment: Related study: relative luciferase reporter gene induction; type: cell-based
Method: as §1

[2] = test system: cells expressing fetal globin (F-cells); experiment: Experiment 1: proportion of F-cells in hematopoietic colonies by FACScan; type: cell-based, human; settings: same low concentrations as for fetal globin mRNA induction
Method: as §2
Hematopoietic colonies were enumerated with or without (+/−) the test compounds, and compared to colonies which developed in the presence of hematopoietic growth factors alone from the same subject (untreated control colonies), and proportions of cells expressing fetal globin (F-cells) were analyzed by FACScan analysis.

[3] = Pharmacokinetic profiles in anemic juvenile baboons (plasma levels by HPLC-MS); type: in vivo; settings: 10 mg/kg oral, baboon
Method: Juvenile baboons were catheterized with venous and arterial catheters, and were phlebotomized a set amount of blood daily to maintain anemia with a hemoglobin level of 7.0-7.5 g/dl, from a baseline normal hemoglobin level of (12-13 g/dl). Normal saline was infused to replace the amount of blood withdrawn. This degree of phlebotomy exchanges the blood volume every 10-20 days. Following establishment of the stable level of anemia, a test compound was administered once/day, either intravenously or orally, and blood was withdrawn through the arterial catheter for analysis of globin mRNA or for analysis of the test compound in the plasma by HPLC-MS. Pharmacokinetic profiles were established from the plasma levels and oral bioavailability (comparing area under the curve between IV and oral plasma levels) was determined for the test compounds.

BFU-E = BFU-E cultured from cord blood; type: cell-based, human
Method: as §2
In a related study, BFU-E cultured from cord blood, was tested with or without compound M, P, R, T, W, Y, Z, AI, F, or 3-(5-chlorothien-3-yl)acrylic acid.

myeloid colonies = experiment: Experiment 3: myeloid colonies in cord blood cultured without added growth factors; type: cell-based, human; settings: no added growth factors
Method: as §2
Control colonies were established in cultures with no added growth factors to support myelopoiesis, in Iscove's Modified Dulbecco's Media (IMDM) methylcellulose media with charcoal-absorbed fetal bovine serum, beta mercaptoethanol, BSA.

[4] = test system: mice transgenic for the micro-LCR-201 gamma-globin gene promoter; experiment: γ-globin induction and hematocrit in transgenic mice; type: in vivo, mouse; settings: IP once/day, 5 days/week, 2 weeks
Method: Transgenic mice containing the human fetal globin gene and a micro-Locus Control Region (LCR) received no treatment (controls) or were treated with test compounds and γ-globin mRNA was analyzed by RT-PCR. Compound W was administered to mice transgenic for the micro-LCR-201 gamma-globin gene promoter, by IP injection once/day for 5 days/week for 2 weeks, and gamma-globin mRNA was assayed by qPCR. Hematocrit was analyzed once per week. A significant difference in expression of human fetal globin mRNA and in hematocrit between Control and compound W-treated mice was found in initial experiments as summarized in Table 4 below.

Erythroid colonies = experiment: Experiment 6: erythroid colony growth from sickle cell patients receiving hydroxyurea; type: cell-based, human
Method: Erythroid colonies from the peripheral blood of 4 patients with sickle cell disease who were receiving treatment with Hydroxyurea (HU), a chemotherapeutic agent which suppresses marrow growth and reduces red blood cell production, were cultured alone or with added test compounds M, P, 2-methyl-1-benzofuran-4-carboxylic acid, V, W, Y (racemic mixture) or AI. L-arginine was added as a neutral control, and had no effect on numbers of erythroid colonies.
2-methyl-1-benzofuran-4-carboxylic acid and compound V require additional samples for statistical evaluation, but had positive effects in 3/3 different patients' cultures. These findings indicate that the test compounds stimulate erythroid cell production particularly in conditions of anemia and bone marrow suppression.

[5] = test system: erythroid (red blood cell) colonies; experiment: Experiment 5: growth of erythroid colonies from cord blood with standard growth factors (EPO and Il-3); type: cell-based, human
Method: In an additional study, comparative growth of erythroid (red blood cell) colonies cultured from cord blood samples was evaluated with the addition of growth factors alone or with the addition of test compounds.
Control and test cultures were established from the same samples with the same growth factors (EPO and II-3) with addition of test compounds. The compounds tested were M, P, R, T, W, Y, Z, AI, F and 3-(5-chlorothien-3-yl)acrylic acid. Two compounds previously shown as positive proliferative agents were included for comparison.

γ-globin = settings: cited from earlier work

Row | Compound | % γ globin promoter induction (above untreated control) (γ globin promoter) | relative in vitro γ-globin gene induction (rank order) (γ-globin gene) | relative in vitro F-cell production (rank order) (F-cell) | relative potency for F-cell production (rank order) (F-cell) | number of erythroid colonies compared to matched control cultures [1] | Concentration required (γ-globin mRNA) [µM] | No. of Positive responses (γ-globin mRNA) | relative in vitro γ-globin gene reporter stimulation (rank order) (γ-globin gene reporter) | proportion of F-cells above the percentage in untreated controls [2] | numbers of BFU-E colonies compared to controls (BFU-E) | production of myeloid colonies compared to untreated control (myeloid colonies) | also measured
1 | COc1cc(OC)nc(SC(C(=O)O)C(C)C)n1 (racemic) [Compound Y] | ** (‘**’ indicates a 100%-200% increase) | P>R=M>Y>W | W>Y>R>M>P | R>M>Y>P>W | increased the number of colonies | 5 | 1/3 | P>M>W=R=Y | significant increases | increased numbers of colonies | stimulated production of myeloid colonies | increase over the baseline level of fetal globin mRNA (fetal globin mRNA): 85%; fetal globin mRNA (% of non-alpha globin) (fetal globin mRNA; baseline 26%, RNAse protection): 48%; initial burst level [3]: does not produce an undesirable high initial burst level; persistence in plasma [3]: greater than 24 hours
2 | O=C(O)c1cccc(Cn2cc([N+](=O)[O-])cn2)c1 [Compound W] | ** (‘**’ indicates a 100%-200% increase) | P>R=M>Y>W | W>Y>R>M>P | R>M>Y>P>W | increased the number of colonies | 40 | 5/6 | P>M>W=R=Y | significant increases | increased numbers of colonies | stimulated production of myeloid colonies | Hematocrit ([4]; untreated 51 +/− 0.45): 57 +/− 3; γ-globin mRNA/S16 (mean relative units) ([4]; untreated 1508): 3418 mean relative units
3 | arginine butyrate |  |  |  |  |  |  |  |  |  |  |  | effect on numbers of erythroid colonies compared to control (Erythroid colonies): decreased numbers of erythroid colonies; % Change from Control (erythroid colony growth) (Erythroid colonies; micromolar: L-arginine 150, AB 100, PA 100, M 1, P 100, 2-methyl-1-benzofuran-4-carboxylic acid 10, V 10, W 40, Y racemic mix 50, Al 30, Hydroxyurea 20): −29%; Number with effects/No effect (Erythroid colonies; patients' cultures, same concentrations as % Change): 5/6; erythroid colony numbers [5]: reduced colony numbers; levels required in vitro (γ-globin): 100 µM
